Biological target: kynurenine 3-monooxygenase (KMO; Recombinant human Kynurenine 3-hydroxylase) (Homo sapiens, UniProt O15229)
Test: SPR (Biacore T200, KMO immobilized on CM5 chip by amine coupling, […] binding model)

Sequence of kynurenine 3-monooxygenase (KMO; Recombinant human Kynurenine 3-hydroxylase) (O15229 whole entry): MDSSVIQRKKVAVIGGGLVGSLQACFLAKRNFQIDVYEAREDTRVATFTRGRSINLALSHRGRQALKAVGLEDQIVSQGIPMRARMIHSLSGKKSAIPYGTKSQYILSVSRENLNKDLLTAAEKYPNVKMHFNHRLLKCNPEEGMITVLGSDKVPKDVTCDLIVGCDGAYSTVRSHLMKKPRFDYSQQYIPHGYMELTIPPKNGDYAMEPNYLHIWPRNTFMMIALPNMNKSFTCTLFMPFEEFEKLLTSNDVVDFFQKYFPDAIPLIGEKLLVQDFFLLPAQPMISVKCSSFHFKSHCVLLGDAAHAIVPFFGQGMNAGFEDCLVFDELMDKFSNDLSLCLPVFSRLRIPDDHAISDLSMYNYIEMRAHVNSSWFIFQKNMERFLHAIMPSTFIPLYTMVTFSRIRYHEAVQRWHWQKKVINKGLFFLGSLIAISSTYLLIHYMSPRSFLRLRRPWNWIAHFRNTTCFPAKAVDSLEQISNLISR

Kd: 1960 nM
Compound: CC(C)=CCC[C@](C)(O[C@@H]1O[C@H](CO[C@@H]2OC[C@@H](O)[C@H](O)[C@H]2O)[C@@H](O)[C@H](O)[C@H]1O)[C@H]1CC[C@]2(C)[C@@H]1[C@H](O)C[C@@H]1[C@@]3(C)CC[C@H](O[C@@H]4O[C@H](CO)[C@@H](O)[C@H](O)[C@H]4O[C@@H]4O[C@H](CO)[C@@H](O)[C@H](O)[C@H]4O)C(C)(C)[C@@H]3CC[C@]12C [Ginsenoside Rb3]

Source: publication PMC10321280, “Inhibition of KMO Ameliorates Myocardial Ischemia Injury via Maintaining Mitochondrial Fusion and Fission Balance” (International Journal of Biological Sciences, 2023)
